Laboratory results from patent publication US5437980A, “Phenanthridium dye staining of nucleic acids in living cells” (Molecular Probes, Inc., priority 1993, dated 1995).

How the values were obtained:
Saccharomyces = test: Staining of yeast (Example 5); format: cell-based; conditions: 10 μM dye, 30 min, 37° C.
Experimental: Yeast cells are washed by centrifugation and then resuspended in a solution of 2% glucose and 10 mM Na-HEPES, pH 7.4 to a cell density of between 5×10^5 and 2×10^6 cells/mL optical density at 410 nm (previously calibrated with YPD agar plate colony counts). Sufficient 10 mM stock solution of the 5-DAPP/LIVE dye in DMSO is added to effect a final concentration of 10 μM of the dye in the medium. The suspension is incubated for 30 min at 37° C. then 15 μL are placed between a coverglass and the microscope slide. The cellular fluorescence is observed using fluorescein (long-pass emission) or rhodamine filter sets.

[1] = tested on: epidermal tissue of the bulb, Alium spp.; test: Staining of plant cell tissue (Example 6); format: cell-based; conditions: 10 μM dye, 30 min, room temperature
Experimental: A small section of tissue from the bulb is removed with a razor blade. 0.5 mL of a 10 μM solution of the 5-DAPP/LIVE dye in distilled water is dispensed into a small glass dish. The epidermal tissue is cut into sections and placed in the dye solution. The tissue is stained for 30 min at room temperature in the dark then the tissue preparation is mounted in the presence of the dye between a coverglass and the slide.

sea urchin sperm = test: Staining of sea urchin sperm (Example 8); format: cell-based; conditions: 2 μM dye, 5 min, room temperature
Experimental: Sperm cells are released from sea urchins by injection of KCl and the cells are concentrated by low speed centrifugation and suspended in 1 mL artificial seawater (ASW) at room temperature. Sufficient 10 mM dye stock solution is added to the sperm suspension to obtain a final dye concentration of 2 μM. The sperm are labeled by incubation in the dye solution for 5 min at room temperature. The sperm are washed by centrifugation at 2000 rpm for 1 min and then resuspended in 1 mL ASW before mounting and observation.

[2] = tested on: rainbow trout gonad cells (RTG-2); test: Staining followed by fixation (Example 13); format: cell-based; conditions: 1 μM, 30 min, room temperature
Experimental: Adherent rainbow trout gonad cells (RTG-2) are grown at 20° C. until about 25% confluent. The cells are labeled by incubation in HBSS- containing 1 μM hexidium at room temperature for 30 min. The cells are subsequently washed free of hexidium with HBSS-, followed by phosphate-buffered saline, pH 7.4 (PBS), and fixed in 2% formaldehyde in PBS for 15 min at room temperature. Cell nuclei and cytoplasmic fluorescence are observed in the fluorescence microscope using fluorescein long-pass or rhodamine filter sets.

gram-positive bacteria = conditions: mild conditions; application Ser. No. 08/047,683; cited from earlier work
gram-negative bacteria = conditions: mild conditions; application Ser. No. 08/047,683; cited from earlier work

For CCCCCC[n+]1c(-c2ccccc2)c2cc(N)ccc2c2ccc(N)cc21 [hexidium], the “staining distribution and intensity” value (Saccharomyces) was “less of a hazy cytoplasmic stain and more distinct nuclei”, the “cell wall / surface staining” value [1] was “more hazy surface staining occurs with ethidium and butidium than with hexidium or octidium” and the “effect on motility of the sperm or ability to fertilize a sea urchin egg” value (sea urchin sperm) was “no apparent effect”. For the same molecule, the “staining of sperm nuclei” value (sea urchin sperm) was “sperm nuclei stain brightly”, the “difference between live loaded cells and cells fixed with 2% formaldehyde” value [2] was “essentially no difference” and the “staining of live gram-positive bacteria” value (gram-positive bacteria) was “significantly greater”. The “staining of live gram-negative bacteria” value (gram-negative bacteria) was “lightly stain some gram negative organisms”.
